Measured values published in patent US4204879A, “Amino acid salts of anionic dyestuffs which have high solubility in organic solvents” (Williams (Hounslow) Limited, priority 1976, dated 1980).

Experiment: Maximum concentration of dye giving a solution stable for 24 hours at room temperature (Tables 2 and 3)
Assay type: physicochemical
Procedure: The solubility values given in these Tables are the maximum concentration of dye in grams/liter giving a solution stable for 24 hours at room temperature.

[1] = Table 2, 24 hours, room temperature, salts of 1:2 chromium complex of 2-amino-4-nitrophenol→3-methyl-1-phenyl-5-pyrazolone

Substance: aniline
- Solubility in Acetone [1]: 25 g.1^-1
- Solubility in Ethyl Acetate [1]: < 5 g.1^-1

Substance: 2-ethylhexylamine
- Solubility in Acetone (acetone, 24 h): > 100 g.1^-1
- Solubility in Ethanol (24 h): 30 g.1^-1
- Solubility in Ethyl Acetate (ethyl acetate, 24 h): < 5 g.1^-1

Substance: iso-tridecylamine
- Solubility in Acetone (acetone, 24 h): > 500 g.1^-1
- Solubility in Ethanol (24 h): 200 g.1^-1
- Solubility in Ethyl Acetate (ethyl acetate, 24 h): < 50 g.1^-1

Substance: N-phenylglycine
- Solubility in Acetone (acetone, 24 h): > 100 g.1^-1
- Solubility in Ethanol (24 h): 50 g.1^-1
- Solubility in Ethyl Acetate (ethyl acetate, 24 h): 100 g.1^-1
